Measured values: patent publication US7662767B2, “Polynucleotide intercalator interceptors and inhibitors” (Materials Evolution and Development USA, Inc., priority 2000, dated 2010)
Several values for one entry are separate records, joined by “and”; a condition that tells them apart may be missing. Equal entries are not always repeated. Where two headings read alike, the source gives them in different places.

Key:
[1] = test system: herring sperm dsDNA; assay: Acridine orange titrated with dsDNA, absorbance; type: binding; settings: AO-DNA
Source text: Experiments were undertaken to characterize the interaction of AO with DNA over a range of DNA base pairs (bp) to AO ratios in the absence of, and in the presence of, a physiological concentration of NaCl. […] The example shown in FIG. 3-6 is a dsDNA bp: AO ratio of selected spectra denoting important transitions within the titration series are denoted with bolder lines. Some of the spectral series is not shown to simplify the data presentation. At bp: AO ratios between 0.0 and 0.75, prevalent peaks occur at 8abs of 468 nm and 492 nm. […] The absorbance spectra from bp: AO ratios above 0.75 denote a definitive red-shift in absorbance with the simultaneous creation of two distinct peaks, one at 475 nm and the other at 503 nm. With continued additions of aliquots of DNA, the absorbance peak near 468 nm is still apparent while the initial main absorbance peak at 492 nm is minimally detectable. […] Additionally, at bp:AO ratios of about 1.72. The absorbance peak near λabs 503 nm increased in amplitude with each additional aliquot of DNA. […] The association constant was calculated from a plot of delta absorbance values at 504 nm versus DNA concentration (see inset FIG. 3-7). The DNA concentrations ranged from 30:M to 170:M.

[2] = Acridine orange self-association (AO-AO dimer), spectrofluorometry λem 530 nm; type: binding; settings: hydrochloride
Protocol: Association constants were calculated using a modification of an equation described by Zaini et al. (1999) to determine equilibrium constants for weakly bound complexes by absorbance spectrophotometry. By definition K=Xd/(Xm* Xm), where K is the binding constant Kassoc, Xd is the concentration of the AO dimer and Xm is the concentration of the AO monomer. Conservation of mass gives Xt=Xm+2*Xd, where Xt is the total concentration of AO in solution. Rearranging the conservation of mass equation gives Xm=Xt−2*Xd, and substituting into the equation for Kassoc and rearranging gives Equation 4: Kassoc(Xt*Xt−4*Xt*Xd+4*Xd*Xd)−Xd=0 EQUATION 4:
Rearranging gives: Xd*Xd−(Xt+1/(4*.Kassoc)*Xd+Xt*Xt/4=0 EQUATION5:
Applying the quadratic formula (X=[−B±SQRT(B^2−4AC]/2A) to Equation 3-5 and taking a physically reasonable root gives Equation 3-6: Xd=[Xt+1/(4*K)−SQRT(Xt/(2*K)+1/[…])]/2 EQUATION 6:
Where SQRT ( ) indicates taking the square root of the content of the parentheses. The fluorescence values at λem 530 nm (F530) is a function of Xt and F530=Xd*ε, where “ε” is the fluorescence yield of the dimer. The equation was solved by non-linear least squares using Prism™ software and binding constants determined. Concentrations of the reactants were adjusted for dilution whereas AO concentrations are reported without adjustment for dilution. Fluorescence values (fi) are reported as raw data normalized to scale and not adjusted by a dilution factor following aliquot additions. Absorbance data taken at 468 nm was also used to calculate the Kassoc for the AO-AO dimer using Equation 6.
The error bars shown standard deviation unless obscured by legend symbols (n=4). The results also indicate the effect of a physiological concentration of NaCl [150 mM] on the fluorescence of AO at both λem 530 nm (green) and λem 635 nm (red) over a range of AO concentrations from 0.5 μM to 10.0 μM. At an AO concentration of between 5-6 μM, the amplitude of green fluorescence at λem 530 nm increases abruptly. The red fluorescence (λem 635 nm) also increases abruptly between 5-6 μM. However, the magnitude of the increase at λem 635 nm is proportionally less than that found at λem 530 nm. As the concentration of AO increases from 5 μM to 6 μM, the mean fluorescence values were changed from 457±16 to 5,197 ±289 at λem 530 nm and from 174±4 to 1,371±41 at λem 635 nm (n=4). […] The example shown in FIG. 3-2B depicts the binding plot calculated at λem 530 nm for the molecular association of AO with itself in the absence of and in the presence of NaCl. The association constants (Kassoc) for AO derived from these two plots are 118,000±16,120 M^−1 (R^2=0.98) in the presence of NaCl [150 mM] and 37,410±4,758 M^−1(R^2=0.97) in the absence of NaCl. Error bars denote standard deviation unless hidden by legend symbols (n=4). The presence of 150 mM NaCl has no significant effect on the fluorescence intensity of AO at either λem 530 nm or λem 635 nm at AO concentrations of 6 μM and above.
Association constants were calculated for AO self-association by assuming the fluorescence values derived at λem 530 nm reflect the extent of dimer formation. Association constants (Kassoc) were calculated from the change in mean fluorescence values (delta fluorescence) at λem 530 nm (see FIG. 3-2B). At AO concentrations from 0.5 μM to 5 μM, Kassoc was determined to be 37,410±4,758 M^−1 (R^2=0.97) in the absence of NaCl and 118,000±16,120 M^−1 (R^2=0.98) in the presence of 150 mM NaCl (see FIG. 3-2B). For AO concentrations >5 μM, the association constants were determined to be 46,700±1,807 M^−1 (R^2=0.99) for AO alone and 41,820±3,671 M^−1 (R^2=0.99) for AO in the presence of NaCl. This indicates a significant AO concentration dependent difference in the association constant in the presence of 150 mM NaCl at low AO concentrations (<5 μM) but not a significant difference at AO concentrations above 5 μM.

[3] = AO-CAF, cited from earlier work

Row | Structure (SMILES) | K ± S.D. ([1]; Absorbance (504 nm), AO [3 μM], DNA [5-170 μM], hydrochloride) | K ± S.D. ([1]; Absorbance (504 nm), AO [3 μM], DNA [5-170 μM], listed as AO-DNA, hydrochloride) | K ± S.D. ([1]; Absorbance, AO [0.1-3 μM], DNA [100 μM]) | K ± S.D. ([1]; Absorbance, AO [0.8-3.4 μM], DNA [20 μM]) | K ± S.D. ([2]; Fluorescence plus NaCl 150 mM, AO [0.5-5.0 μM]) | K ± S.D. ([2]; Fluorescence plus NaCl 150 mM, AO [0.5-5.0 μM], listed as AO-AO) | K ± S.D. ([2]; Fluorescence plus NaCl, AO [6.0-10.0 μM]) | K ± S.D. ([2]; Fluorescence plus NaCl, AO [6.0-10.0 μM], listed as AO-AO) | K ± S.D. ([2]; Fluorescence, AO [0.5-5.0 μM], absence of NaCl) | K ± S.D. ([2]; Fluorescence, AO [0.5-5.0 μM], absence of NaCl, listed as AO-AO) | K ± S.D. ([2]; Fluorescence, AO [6.0-10.0 μM], absence of NaCl) | K ± S.D. ([2]; Fluorescence, AO [6.0-10.0 μM], absence of NaCl, listed as AO-AO) | K ± S.D. ([3]; Absorbance plus NaCl 150 mM, AO [20 μM], CAF [1-2000 μM], Kapuscinski & Kimmel, 1993) | K ± S.D. ([3]; Absorbance, AO [10 μM], CAF [1-5000 μM], Larsen et al., 1996) | K ± S.D. ([3]; Absorbance, AO [20 μM], CAF [1-2000 μM], Kapuscinski & Kimmel, 1993)
1 | CN(C)c1ccc2cc3ccc(N(C)C)cc3nc2c1.Cl [AO, 3,6-bis[dimethylamino]acridine hydrochloride] | 37,660±431 M^−1 | 37,660 ± 431 M^−1 | 33,510 ± 285 M^−1 | 31,960 ± 316 M^−1 | 118,000±16,120 M^−1 and 118,000 M^−1 | 118,000 ± 16,120 M^−1 | 41,820±3,671 M^−1 | 41,820 ± 3,671 M^−1 | 37,410±4,758 M^−1 and 37,410 M^−1 | 37,410 ± 4,758 M^−1 | 46,700±1,807 M^−1 | 46,700 ± 1,807 M^−1 |  |  | 
2 | Cn1c(=O)c2c(ncn2C)n(C)c1=O [1,3,7-trimethyl xanthine (caffeine), 1,3,7-trimethyl xanthine] |  |  |  |  |  |  |  |  |  |  |  |  | 169 ± 9 M⁻¹ | 258 ± 5 M⁻¹ | 258 ± 7 M⁻¹
